Test results from US20090203707A1, “METHODS FOR TREATING PAIN” (priority 2008, published 2009).
Like-named read-outs stand apart in the source and are kept apart here.

Legend:
[1] = biological target: hNav1.7+β1 subunits in HEK293 cells (Homo sapiens, UniProt Q15858); assay: Whole-cell patch clamp, hNav1.7 INa in HEK293 cells (Example 2); conditions: for Kd: estimated from shift of steady-state inactivation curve (Bean equation); for IC50: IC50 value, block of Nav1.7 INa
[2] = biological target: rNav1.8 Na+ channels in ND7-23 cells (Rattus norvegicus, UniProt Q62968); assay: Whole-cell patch clamp, rNav1.8 INa in ND7-23 cells (Example 2); conditions: for Use-dependent block of rNav1.8 INa: 40 pulses of 10 msec to +50 mV; for Kd: estimated from shift of steady-state inactivation curve (Bean equation)
rNav1.8 Na+ channels in ND7-23 cells, sequence (Q62968 whole entry): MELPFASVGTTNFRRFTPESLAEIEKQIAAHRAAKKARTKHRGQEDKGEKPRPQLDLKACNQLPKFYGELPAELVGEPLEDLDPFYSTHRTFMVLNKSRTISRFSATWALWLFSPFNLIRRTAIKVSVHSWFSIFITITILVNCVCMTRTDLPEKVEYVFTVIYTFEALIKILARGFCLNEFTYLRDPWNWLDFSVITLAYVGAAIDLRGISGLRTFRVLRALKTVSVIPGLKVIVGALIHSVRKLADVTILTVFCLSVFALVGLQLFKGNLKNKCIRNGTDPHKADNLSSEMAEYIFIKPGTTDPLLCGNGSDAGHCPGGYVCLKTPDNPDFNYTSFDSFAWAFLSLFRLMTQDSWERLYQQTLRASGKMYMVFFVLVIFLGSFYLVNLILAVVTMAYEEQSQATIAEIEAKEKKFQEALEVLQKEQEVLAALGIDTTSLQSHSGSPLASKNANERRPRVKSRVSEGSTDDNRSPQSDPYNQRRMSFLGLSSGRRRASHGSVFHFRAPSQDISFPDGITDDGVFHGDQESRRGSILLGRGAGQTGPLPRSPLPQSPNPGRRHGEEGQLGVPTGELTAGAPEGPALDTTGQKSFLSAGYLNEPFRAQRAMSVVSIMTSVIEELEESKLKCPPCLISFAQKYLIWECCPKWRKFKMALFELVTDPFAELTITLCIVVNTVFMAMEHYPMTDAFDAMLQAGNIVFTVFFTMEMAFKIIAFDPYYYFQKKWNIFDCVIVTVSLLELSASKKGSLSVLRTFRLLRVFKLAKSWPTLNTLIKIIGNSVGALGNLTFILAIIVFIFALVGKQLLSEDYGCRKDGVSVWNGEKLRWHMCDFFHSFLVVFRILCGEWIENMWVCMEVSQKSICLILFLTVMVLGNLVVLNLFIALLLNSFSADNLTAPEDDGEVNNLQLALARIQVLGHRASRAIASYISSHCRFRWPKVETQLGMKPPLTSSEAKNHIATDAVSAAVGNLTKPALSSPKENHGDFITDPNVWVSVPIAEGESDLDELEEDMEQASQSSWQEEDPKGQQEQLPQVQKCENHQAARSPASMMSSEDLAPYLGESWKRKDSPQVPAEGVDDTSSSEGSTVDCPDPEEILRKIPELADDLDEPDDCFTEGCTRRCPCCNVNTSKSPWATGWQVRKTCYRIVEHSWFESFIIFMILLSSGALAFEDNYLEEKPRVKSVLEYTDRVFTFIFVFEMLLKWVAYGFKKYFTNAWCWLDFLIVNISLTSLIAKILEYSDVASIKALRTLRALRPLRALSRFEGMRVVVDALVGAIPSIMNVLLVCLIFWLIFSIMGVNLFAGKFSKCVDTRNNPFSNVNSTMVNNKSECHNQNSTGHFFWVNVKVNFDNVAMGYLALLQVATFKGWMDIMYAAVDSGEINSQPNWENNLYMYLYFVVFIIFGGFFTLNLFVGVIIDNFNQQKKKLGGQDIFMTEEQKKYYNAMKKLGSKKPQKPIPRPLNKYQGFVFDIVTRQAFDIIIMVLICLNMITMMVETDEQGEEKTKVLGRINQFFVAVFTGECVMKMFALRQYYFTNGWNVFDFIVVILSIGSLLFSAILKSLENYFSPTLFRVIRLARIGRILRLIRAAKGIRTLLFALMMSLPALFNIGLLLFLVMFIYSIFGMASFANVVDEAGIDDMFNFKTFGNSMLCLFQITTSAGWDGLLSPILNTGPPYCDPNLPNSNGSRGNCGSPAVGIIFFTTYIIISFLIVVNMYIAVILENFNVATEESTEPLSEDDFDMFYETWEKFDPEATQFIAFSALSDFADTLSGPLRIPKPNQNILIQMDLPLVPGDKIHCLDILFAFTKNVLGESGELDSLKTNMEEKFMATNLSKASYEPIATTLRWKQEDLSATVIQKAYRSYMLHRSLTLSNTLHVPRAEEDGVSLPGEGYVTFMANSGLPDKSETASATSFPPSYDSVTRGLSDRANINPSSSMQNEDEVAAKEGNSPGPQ

[3] = biological target: SCN9A (Nav1.7) Na+ channel, α- and β1 subunits, in HEK293 cells (Homo sapiens, UniProt Q15858); assay: Whole-cell patch clamp, Nav1.7 peak INa in HEK293 cells (Example 1); conditions: for Mean amplitude of Nav1.7 peak INa, fraction of control: −100 mV to 0 mV, 50 msec
SCN9A (Nav1.7) Na+ channel, α- and β1 subunits, in HEK293 cells, sequence (Q15858 whole entry): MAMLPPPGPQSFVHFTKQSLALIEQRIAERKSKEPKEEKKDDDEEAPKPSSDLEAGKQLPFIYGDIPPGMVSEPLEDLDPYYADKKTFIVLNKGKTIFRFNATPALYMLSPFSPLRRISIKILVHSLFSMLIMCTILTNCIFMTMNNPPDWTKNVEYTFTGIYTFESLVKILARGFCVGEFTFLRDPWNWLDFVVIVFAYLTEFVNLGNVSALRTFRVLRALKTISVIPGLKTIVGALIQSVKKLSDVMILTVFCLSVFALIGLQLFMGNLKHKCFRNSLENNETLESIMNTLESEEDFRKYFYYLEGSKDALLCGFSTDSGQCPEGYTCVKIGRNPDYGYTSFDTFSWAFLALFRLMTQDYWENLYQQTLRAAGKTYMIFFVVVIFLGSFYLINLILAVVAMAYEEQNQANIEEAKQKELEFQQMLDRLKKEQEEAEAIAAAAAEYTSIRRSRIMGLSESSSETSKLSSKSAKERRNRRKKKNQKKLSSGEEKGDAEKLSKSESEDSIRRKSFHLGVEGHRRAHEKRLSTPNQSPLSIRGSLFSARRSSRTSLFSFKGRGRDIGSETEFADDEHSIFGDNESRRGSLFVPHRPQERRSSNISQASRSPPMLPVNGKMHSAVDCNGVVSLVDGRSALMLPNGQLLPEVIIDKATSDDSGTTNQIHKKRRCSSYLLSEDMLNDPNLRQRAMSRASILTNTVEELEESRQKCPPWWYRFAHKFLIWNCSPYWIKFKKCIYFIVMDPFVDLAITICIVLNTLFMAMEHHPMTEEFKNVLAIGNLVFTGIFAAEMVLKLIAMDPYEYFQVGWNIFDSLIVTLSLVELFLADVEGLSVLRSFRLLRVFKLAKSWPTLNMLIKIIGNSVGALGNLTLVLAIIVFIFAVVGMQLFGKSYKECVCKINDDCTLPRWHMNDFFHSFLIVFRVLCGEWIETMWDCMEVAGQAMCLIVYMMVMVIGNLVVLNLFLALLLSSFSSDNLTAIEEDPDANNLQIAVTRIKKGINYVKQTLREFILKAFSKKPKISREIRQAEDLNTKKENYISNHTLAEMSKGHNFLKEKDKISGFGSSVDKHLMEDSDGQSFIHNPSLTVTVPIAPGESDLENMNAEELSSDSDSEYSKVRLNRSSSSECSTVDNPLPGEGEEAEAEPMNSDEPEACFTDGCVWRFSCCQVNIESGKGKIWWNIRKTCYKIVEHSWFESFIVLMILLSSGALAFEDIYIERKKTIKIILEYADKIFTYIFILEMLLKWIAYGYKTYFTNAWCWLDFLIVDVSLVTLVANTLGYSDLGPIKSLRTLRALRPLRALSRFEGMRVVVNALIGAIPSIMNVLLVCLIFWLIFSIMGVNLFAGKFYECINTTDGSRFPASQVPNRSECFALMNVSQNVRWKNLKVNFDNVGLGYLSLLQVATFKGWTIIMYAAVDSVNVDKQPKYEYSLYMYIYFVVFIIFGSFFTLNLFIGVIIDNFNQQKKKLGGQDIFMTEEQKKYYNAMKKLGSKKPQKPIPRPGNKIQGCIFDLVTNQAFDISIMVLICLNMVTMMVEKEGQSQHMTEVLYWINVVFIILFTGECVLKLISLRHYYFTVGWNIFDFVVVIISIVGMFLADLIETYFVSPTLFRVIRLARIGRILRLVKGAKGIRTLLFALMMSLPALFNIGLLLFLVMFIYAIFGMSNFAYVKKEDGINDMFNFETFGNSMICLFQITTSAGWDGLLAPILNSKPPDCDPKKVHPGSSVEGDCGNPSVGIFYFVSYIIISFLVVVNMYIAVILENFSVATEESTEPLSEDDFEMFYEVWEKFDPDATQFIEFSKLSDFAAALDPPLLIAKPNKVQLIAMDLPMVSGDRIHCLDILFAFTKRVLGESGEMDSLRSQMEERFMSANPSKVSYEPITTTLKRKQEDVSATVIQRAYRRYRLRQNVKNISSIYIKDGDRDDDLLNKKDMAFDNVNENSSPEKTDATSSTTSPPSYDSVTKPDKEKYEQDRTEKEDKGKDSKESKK
SCN9A (Nav1.7) Na+ channel, α- and β1 subunits, in HEK293 cells, sequence (Q07699 19-218 partner): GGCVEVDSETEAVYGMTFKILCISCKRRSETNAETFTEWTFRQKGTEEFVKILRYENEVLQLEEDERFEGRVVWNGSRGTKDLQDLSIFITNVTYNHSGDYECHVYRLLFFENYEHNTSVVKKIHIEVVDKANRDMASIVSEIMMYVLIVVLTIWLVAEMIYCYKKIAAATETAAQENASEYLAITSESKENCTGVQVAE

[4] = Dissociation constant for inactivated state (Kdi)
[5] = Dissociation constant for rested state (Kdr)
[6] = 10 μM, 10 sec prepulse, n=6 cells
[7] = 10 μM, 100 msec prepulse, n=4 cells
[8] = holding −100 mV to 0 mV, 0.1 Hz

hNav1.7+β1 subunits in HEK293 cells, sequence (Q15858 whole entry): as the sequence (Q15858 whole entry) above
hNav1.7+β1 subunits in HEK293 cells, sequence (Q07699 19-218 partner): as the sequence (Q07699 19-218 partner) above

COc1ccccc1OCC(O)CN1CCN(CC(=O)Nc2c(C)cccc2C)CC1 (racemic) [Ranolazine, (±)-N-(2,6-dimethylphenyl)-4-[2-hydroxy-3-(2-methoxyphenoxy)-propyl]-1-piperazineacetamide]
Development of slow inactivation, τS ([1]; 30 μM, at −40 mV): 1845.75 ± 129.03 ms
Kd [1, 4]: 0.47 µM
Kd [1, 5]: 12.1 µM
IC50 ([1]; V0, holding potential −120 mV): 10.4 ± 1.25 µM
IC50 ([1]; V0.5, holding potential −70 mV): 3.25 ± 0.17 µM
Hill Coefficient, block of Nav1.7 INa ([1]; V0, holding potential −120 mV): [0.84 ± 0.09]
Hill Coefficient, block of Nav1.7 INa ([1]; V0.5, holding potential −70 mV): [1.33 ± 0.08]
IC50 [2]: 21.5 ± 3.01 µM
Inactivation V1/2 (steady-state intermediate, 1 sec prepulse) ([2]; 1 μM): −42.75 ± 3.93 mV
Inactivation slope factor K (1 sec prepulse) ([2]; 1 μM): 7.38 ± 0.93 mV/e-fold
Inactivation V1/2 (steady-state intermediate, 1 sec prepulse) ([2]; 3 μM): −47.61 ± 4.56 mV
Inactivation slope factor K (1 sec prepulse) ([2]; 3 μM): 7.14 ± 0.61 mV/e-fold
Activation V1/2 ([2]; 10 μM): 4.71 ± 2.58 mV
Activation slope factor K ([2]; 10 μM): 8.55 ± 1.62 mV/e-fold
Inactivation V1/2 (steady-state intermediate, 1 sec prepulse) ([2]; 10 μM): −57.88 ± 5.73 mV
Inactivation slope factor K (1 sec prepulse) ([2]; 10 μM): 7.59 ± 0.79 mV/e-fold
V1/2 of steady-state slow inactivation [2, 6]: −54.57±3.69
k of steady-state slow inactivation [2, 6]: 8.38±0.76
V1/2 of steady-state fast inactivation [2, 7]: −40.66±3.23
k of steady-state fast inactivation [2, 7]: 11.45±1.21
Inactivation V1/2 (steady-state intermediate, 1 sec prepulse) ([2]; 30 μM): −59.52 ± 2.18 mV
Inactivation slope factor K (1 sec prepulse) ([2]; 30 μM): 7.59 ± 1.09 mV/e-fold
Use-dependent block of rNav1.8 INa ([2]; 30 μM, 1 Hz): 60.20±2.04%
Use-dependent block of rNav1.8 INa ([2]; 30 μM, 5 Hz): 67.96±4.68%
Use-dependent block of rNav1.8 INa ([2]; 30 μM, 10 Hz): 70.16±2.09%
Development of slow inactivation, AF ([2]; 30 μM, at +20 mV): 0.53 ± 0.07
Development of slow inactivation, AI ([2]; 30 μM, at +20 mV): 0.25 ± 0.07
Development of slow inactivation, AS ([2]; 30 μM, at +20 mV): 0.09 ± 0.02
Development of slow inactivation, τF ([2]; 30 μM, at +20 mV): 5.59 ± 1.08 ms
Development of slow inactivation, τI ([2]; 30 μM, at +20 mV): 34.11 ± 14.14 ms
Development of slow inactivation, τS ([2]; 30 μM, at +20 mV): 703.24 ± 373.82 ms
Time constant of INa decay (single exponential) ([2]; 30 μM, at +20 mV, n=4 cells): 1.60 ± 0.04 ms
Development of slow inactivation, AF ([2]; 30 μM, at −20 mV): 0.52 ± 0.05
Development of slow inactivation, AI ([2]; 30 μM, at −20 mV): 0.30 ± 0.06
Development of slow inactivation, AS ([2]; 30 μM, at −20 mV): 0.18 ± 0.03
Development of slow inactivation, τF ([2]; 30 μM, at −20 mV): 22.75 ± 2.31 ms
Development of slow inactivation, τI ([2]; 30 μM, at −20 mV): 98.08 ± 13.65 ms
Development of slow inactivation, τS ([2]; 30 μM, at −20 mV): 1203.00 ± 337.50 ms
Steady-state use-dependent block of rNav1.8 INa ([2]; 100 μM, 3, 5, 20 or 200 msec pulses to +50 mV, 5 Hz): 71.69±0.85%
Kd [2, 4]: 0.64 µM
Kd [2, 5]: 22.8 µM
IC50 ([2]; IC50 value, block of Nav1.8 INa, V0.5, holding potential −40 mV): 4.33 ± 0.52 µM
Hill Coefficient, block of Nav1.8 INa ([2]; V0, holding potential −100 mV): [0.90 ± 0.11]
Hill Coefficient, block of Nav1.8 INa ([2]; V0.5, holding potential −40 mV): [0.89 ± 0.09]
Mean amplitude of Nav1.7 peak INa, fraction of control ([3]; 1 μM, 0.1 Hz): 0.9114
Mean amplitude of Nav1.7 peak INa, fraction of control ([3]; 3 μM, 0.1 Hz): 0.7275
Mean amplitude of Nav1.7 peak INa, fraction of control ([3]; 10 μM, 0.1 Hz): 0.4692
Mean amplitude of Nav1.7 peak INa, fraction of control ([3]; 30 μM, 0.1 Hz): 0.327
Block of Nav1.7 peak INa at end of pulse train (pulse 40) ([3]; 100 μM, 40 pulses −100 to 0 mV, 2, 5, 20 or 200 msec, 5 Hz): ~82.72±0.71%
p of logistic fit (Hill coefficient nH) for block of Nav1.7 peak INa [3, 8]: 0.8368
x0 of logistic fit (IC50) for block of Nav1.7 peak INa [3, 8]: 10.3585 μM
